Test results reported in EP4755889A1, “COMPOUND FOR DETECTING AMYLOID-BETA OLIGOMER AND METHOD FOR DIAGNOSING DEGENERATIVE BRAIN DISEASE USING SAME” (Amyloid Solution Inc., priority 2024, dated 2025).

Tests used:
[1] = molecular target: T1, Aβ1-42-Aβn-(n+5) complexes (Homo sapiens, UniProt P05067); assay: Mapping Amyloid Plate (MAP): binding to complexes of Aβ1-42 with fragments
T1 construct: full-length Aβ1-42 peptide was added to the MAP and incubated at 37 °C for 8 hours
Experimental: A Mapping Amyloid Plate (MAP) for investigating the target site of the compound of the present disclosure on Aβ1-42 fragments or Aβ1-42 oligomers was prepared with reference to Korean Patent Application No. 10-2023-0133625, which is incorporated herein by reference in its entirety.
Briefly, to remove the bovine serum albumin coating from the plate, each well of the plate was washed three times with 200 µL of wash buffer (0.1 M sodium phosphate, 0.15 M sodium chloride, 0.05 % Tween-20, pH 7.2). Full-length and fragmented peptides of Aβ1-42 were individually dissolved in DMSO to prepare […] stock solutions, which were then diluted with binding buffer (0.1 M sodium phosphate, 0.15 M sodium chloride, 10 mM EDTA, pH 7.2) to prepare 50 µg/mL peptide solutions (5 % DMSO). 100 µL of the peptide solution was added to each well and allowed to react with the maleimide at room temperature overnight. After peptide immobilization, unbound peptides were removed by washing three times with 200 µL of wash buffer. To inactivate residual maleimide groups, 200 µL of a cysteine solution (10 µg/mL in binding buffer) was added to each well and incubated at room temperature for 1 hour. After cysteine capping, all wells of the plate were washed three times with 200 µL of wash buffer.
Two conditions were prepared to confirm whether the compound of the present disclosure targets the structure or the sequence of Aβ oligomers. First, the compound of the present disclosure (50 µM) was prepared in binding buffer (10 % DMSO), and 100 µL of the compound was added to the MAP and treated for 24 hours at room temperature. After incubation, all wells were washed three times with 200 µL of wash buffer. Second, full-length Aβ1-42 peptide was added to the MAP and incubated at 37 °C for 8 hours to form complexes between full-length Aβ1-42 and fragmented Aβ1-42. […] The fluorescence intensity of both plates was measured using a microplate reader (λex = 285 nm/λem = 475 nm). […]

Aβ1-42 oligomers = molecular target: T2, Aβ1-42 oligomers (Homo sapiens, UniProt P05067); assay: Selectivity for blood proteins: Aβ1-42 oligomers; type: binding; conditions: IK15j (25 µM); compared with albumin and fibrinogen
T2 construct: Aβ1-42 peptide was aggregated at 37 °C for 8 hours
T2 sequence (P05067 672-713): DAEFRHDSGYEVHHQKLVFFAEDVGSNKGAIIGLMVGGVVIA
Experimental: Aβ1-42 peptide was aggregated at 37 °C for 8 hours, and 25 µM of Aβ1-42 oligomers, albumin (Sigma-Aldrich, USA), and fibrinogen (Sigma-Aldrich, USA) were seeded into a black microplate. Each sample was treated with IK15j (100 µM) for 8 hours at room temperature. The signal of each sample was detected using a microplate reader (λex = 285 nm / λem = 475 nm).
Excluding water, the solid components of plasma consist of coagulation factors and plasma proteins. Albumin is the most abundant protein in plasma, and fibrinogen is a major coagulation factor in plasma. Considering the possibility that fibrinogen or albumin might interact with AD diagnostic tools and interfere with compound selectivity, IK15j (25 µM) was incubated with Aβ1-42, albumin, or fibrinogen as described in Reference Example 10, and the fluorescence signal of each sample was measured to evaluate the selectivity of the compound of the present disclosure against these proteins.

[2] = MAP incubated with additional Aβ1-42 for 8 hours, then IK15j for 24 hours

T1 sequence (P05067 672-713, one chain of several): as the sequence (P05067 672-713) above

binding affinity for the N-terminus of Aβ, Aβ1-8 (DAEFRHDS) ([1]; MAP complexes): moderate binding affinity
binding to complexes of Aβ1-42 with Aβ19-25 (FFAEDVG) and Aβ35-42 (MVGGVVIA) [1, 2]: bound strongly
overall signal in the presence of Aβ1-42-Aβn-(n+5) complexes [1, 2]: increased
fluorescence intensity in the presence of Aβ1-42 oligomers compared to other proteins (Aβ1-42 oligomers): increased markedly
Compound: Cc1ccc2c(c1)c(-c1ccccc1)cn1c(C)cc(C#N)c21 [IK15j, 3,8-dimethyl-6-phenylpyrrolo[2,1-a]isoquinoline-1-carbonitrile]
